# Measured values published in patent publication US5498624A, “Selected pyrazolyl derivatives” (Monsanto Company, priority 1995, dated 1996).
# How the values were obtained:
# [1] = system: Erysiphe graminis f. sp. hordei; experiment: Barley Powdery Mildew Foliar Assay (BPM Prot); format: in vivo; conditions: inoculation 24 hours after application
# Protocol: A) Pathogen/Inoculum Production--Leaf material infected with the barley powdery mildew fungus, Erysiphe graminis f. sp. hordei, is maintained continuously on barley seedlings, cv. Perry.
# B) Host Propagation--Barley seedlings, cv. Perry, are grown to second leaf stage in a commercial soil preparation, "Metro Mix 200", amended with 100 gm/ft^3 slow release "Osmocote 14-14-14". A sufficient number of seeds are planted per pot (5 cm in diameter) in order to insure the production of 3-5 vigorous seedlings per pot. The plants are maintained in a growth chamber set at 21° C., 80% RH with a 12 hour photoperiod. Light intensity is set at 300 me/m^2/ sec.
# C) Test Compound Preparation
# 1) Experimental compounds--Each or the compounds of the present invention are applied at 500, 100, and 20 ppm. Formulation is generally in […], 59.95% water, and 0.05% Tween 20. Four pots (with 3-5 plants/pot) at each rate are treated. The application volume is 8 ml per treatment. Formulated materials, such as commercially available products, are brought up to the appropriate treatment volume with water containing Tween®20,05% v/v.
# 2) Controls and standards--The commercial standards used are Corbel® (active ingredient fenpropimorph) and NUSTAR® (active ingredient flusilazole), both at the rate of 20 and/or 10 ppm. A set of control plants, treated with the formulation blank and inoculated, are also included.
# D) Compound Application--Compound is sprayed onto the leaves of the plants (pots positioned on a rotating table) using a DeVilbiss Model 152 hand sprayer. Coverage of the first leaf is essential. After the plants have thoroughly dried they are returned to the growth room and randomized.
# E) Inoculation/Incubation--Inoculation of the test plants takes place 24 hours after compound application. Inoculation is accomplished by gently shaking plants previously infected with the Erysiphe graminis f. sp. hordeii fungus over the test plants. This process liberates a cloud of spores which effectively and uniformly fall onto the test plants. After inoculation the plants are returned to the environmental conditions under which they were grown.
# F) Evaluation--The test is assessed 6-7 days after inoculation. Treatments are evaluated by visually estimating the percentage of the leaf area infected on the first leaf. Three ratings are made on each pot (replicate). Phytotoxicity and growth effects are also noted at this time.
# G) Data--All replicate data is recorded as a percent disease value. Treatment means are calculated and percent disease control is determined by the formula: (control mean--treatment mean)*100/control mean. The inoculated control treatment mean is used for this calculation. The percent protection values for the compounds of the present invention are as set out in the Table below.
# [2] = system: Pseudocercosporella herpotrichoides var. tritici; experiment: Wheat True Eyespot In Vitro Assay (WES In Vitro); format: cell-based; design: key: 0: no inhibition of mycelial growth; 1: slight inhibition of mycelial growth; 2: moderate inhibition of mycelial growth; 3: strong inhibition of mycelial growth; conditions: 3 days at 19° C.
# Protocol: A) Pathogen/Inoculum Production--A mycelial transfer of Pseudocercosporella herpotrichoides var. tritici is placed onto potato dextrose agar plates and allowed to grow for 40 days at 20 ° C., without light. Five agar discs are taken from the actively growing culture and are placed equidistant, mycelial side down, onto a water agar plate, and incubated at 10 ° C. with 10 hours of fluorescent light per day. After 5 days of incubation, sporulation on the transferred discs begins, and plates are flooded with 3-5 mls sterile deionized water. One-half ml aliquots are taken from the resulting spore suspension and placed on new water agar plates. Spores are spread across plates using a bent glass rod and incubated at 10 ° C. with 10 hour fluorescent light periods per day. In 5-10 days, a lawn of spores is produced and can be "harvested".
# B) Compound Preparation and Test Execution--200 μl of 1/4 strength potato dextrose broth is placed in each well of a 96 well microtiter plate. […] The commercial standard used is prochloraz at equivalent rates.
# C) Inoculation/Incubation--50 μl of a 1×10^6 spores/ml suspension harvested using the method above is added to each well. The 96 well plates are incubated for 3 days at 19° C. in the dark.
# D) Evaluation--After incubation, each well is visually assessed for growth inhibition on the following 0-3 scale:
# 0=no inhibition of mycelial growth
# 1=slight inhibition of mycelial growth
# 2=moderate inhibition of mycelial growth
# 3=strong inhibition of mycelial growth
# Septoria nodorum = experiment: Wheat Glume Blotch Foliar Assay, protectant (WGB Prot); format: in vivo; conditions: application two days pre-inoculation
# Protocol: A) Host Propagation--Winter wheat plants, cv. Caldwell, are grown in 5.7 cm^2 pots, three per pot, and maintained in a growth chamber set at 20° C., 80% RH with a 12 hour photoperiod.
# B) Compound Preparation--A 1.0% stock solution of each of the compounds of the present invention is first prepared utilizing an appropriate solvent such as acetone, water or DMSO. This stock is then used to prepare the final spray solution which contains the compound at the desired dosage, eg 100 ppm and 20 ppm, acetone at 20% v/v, Tween®20 at .05% w/v, and water at about 80%. Commercial standard used is tebuconazole at equivalent rates.
# C) Compound Application, Seedlings are sprayed at the two-leaf stage (GS 12) using a DeVilbiss Model 152 hand operated sprayer set at 15-20 psi. Six ml of the test solution per treatment are applied to three pots. In the protectant assay (EXAMPLE 8), the compound application is made two days pre-inoculation. In the curative assay (EXAMPLE 9), the compound is applied during a brief interruption of the disease incubation period two days post-inoculation.
# D) Pathogen Production/Inoculation--The wheat glume blotch fungus, Septoria nodorum, is maintained in the pycnidial state on yeast malt agar (YMA) and transferred weekly by streaking a suspension of conidia obtained from a ten to twelve day old sporulating culture onto fresh YMA plates. The plates are incubated at 20° C. with a 12 hour photoperiod.
# Test inoculum is prepared by flooding seven day old culture plates with deionized water amended with Tween®20 (0.1% v/v) and gently scraping the pycnidia to release the extruding masses of conidia. The resulting spore suspension is filtered through two layers of cheese cloth and adjusted to 4×10^6 spores/ml utilizing the Tween®20 solution.
# Forty-eight hours after the compound application and prior to inoculation, the test plants are preconditioned for at least one hour in a dark growth chamber set at 20° C. and 100% RH. After the preconditioning period is over, the conidial suspension is applied to run-off using a DiVilbiss hand operated sprayer. The plants are then returned to the preconditioning chamber and incubated at the same settings for 96 hours. Light is supplied to the plants during the last twelve hours of incubation. At the end of the 96 hour period, the plants are returned to the environmental conditions under which they were grown.
# E) Test Evaluation--Eight to ten days after removal from the high humidity chamber, or twelve to fourteen days after inoculation, treatments are evaluated by visually estimating the percentage of the leaf area (on the first leaf) covered with lesions. Three ratings are made on each pot which constitutes a replicate. Each replicate then receives a numerical mean by averaging the three values. Percent disease, as well as percent control values are calculated. The percent control values obtained from these assays for the compounds of the present invention are as set out in the Table below.
Structure (SMILES),BPM Prot percent disease control ([1]; 500 ppm foliar) [%],WES In vitro growth inhibition 0-3 scale ([2]; 0.1 ppm),WES In vitro growth inhibition 0-3 scale ([2]; 0.5 ppm),WES In vitro growth inhibition 0-3 scale ([2]; 5.0 ppm),"WGB Prot percent control (Septoria nodorum; 20 ppm, * = averaged value) [%]","WGB Prot percent control (Septoria nodorum; 100 ppm, * = averaged value) [%]",BPM Prot percent disease control ([1]; 20 ppm foliar) [%],BPM Prot percent disease control ([1]; 100 ppm foliar) [%],"WGB Prot percent control (Septoria nodorum; 500 ppm, wheat) [%]"
"CC[C@H]1CC[C@@H](c2ccccc2NC(=O)c2cn(C)nc2C(F)F)CC1 [Number 1, 1H-pyrazole-4-carboxamide, 3-(difluoromethyl)-N-[2-(4-ethylcyclohexyl)phenyl]-1-methyl-, cis-]",88,0,3,3,–,–,–,–,–
"C[C@H]1CCC[C@H](c2ccccc2NC(=O)c2cn(C)nc2C(F)F)C1 (relative stereo) [Number 3, 1H-pyrazole-4-carboxamide, 3-(difluoromethyl)-1-methyl-N-[2-(3-methylcyclohexyl)phenyl]-, trans-]",–,1,2,3,79,90,98,98,–
Cn1cc(C(=O)Nc2ccccc2[C@@H]2CCC[C@@H](C(F)(F)F)C2)c(C(F)F)n1 (relative stereo) [Number 6],–,0,0,2,70,86,–,–,89
"C[C@@H]1CCC[C@H](c2ccccc2NC(=O)c2cn(C)nc2C(F)F)C1 (relative stereo) [Number 2, 1H-pyrazole-4-carboxamide, 3-(difluoromethyl)-1-methyl-N-[2-(-3-methylcyclohexyl)phenyl]-, cis-]",85,1,2,3,56,86,90,96,99
"Cn1cc(C(=O)Nc2ccccc2C2CCC(C)(C)CC2)c(C(F)F)n1 [Number 5, 1H-pyrazole-4-carboxamide, 3-(difluoromethyl)-N-(2-(4,4-dimethylcyclohexyl)phenyl]-1-methyl-]",–,1,3,3,47,93,–,–,–
"Cn1cc(C(=O)Nc2ccccc2[C@H]2CC[C@H](C)CC2)c(C(F)(F)F)n1 [Number 4, 1H-pyrazole-4-carboxamide, 1-methyl-N-[2-(4-methylcyclohexyl)phenyl]-3-(trifluoromethyl)-, trans-]",–,1,2,3,81,97,–,–,–
